Source: patent publication US10849866B2, “Methods for inhibiting conversion of choline to trimethylamine (TMA)” (The Procter & Gamble Company, priority 2017, dated 2020)

Experiments:
[1] = system: Proteus mirabilis 29906 (Pm) lysate; test: Inhibition of formation of TMA from choline in Proteus mirabilis lysate (Example 2); type: biochemical; details: Pm lysate 1.5 mg/mL protein, 50 μM d9-choline chloride, 37° C., two hours; read-out: TMA Inhibition (IC50, mol/L)
Description: Choline chloride (CC) (1M stock) was added to reach a final concentration of 2.5 mM choline chloride. The mixture was mixed using a vortex mixer for approximately 15 seconds and incubated at 37° C. for 22 hours. After incubation, 150 μL of CC-treated Pm lysate was dispensed into a deep-well plate (polypropylene, 2 mL volume, Corning Axygen catalogue # P-DW-20-C). […] The plates were agitated on a plate shaker for 1 minute. d9-choline chloride (1.5 μL of 5 mM) was added to all wells to reach a final d9-choline chloride concentration of 50 μM.
The plates were again agitated on a plate shaker for 1 minute and incubated at 37° C. for two hours. After incubation, 1.5 μL of formic acid was added to each well (final concentration=1% formic acid). The plates were agitated on a plate shaker for 1 minute and placed on ice. Cell lysate samples were spiked with stable isotope labeled internal standard (22.5 μL of 6 μg/mL of 13C3-trimethylamine (13C3-TMA) was added to each sample), then d9-trimethylamine (d9-TMA), trimethylamine (TMA) and 13C3-TMA were isolated from the lysate after protein precipitation as described below. […] The supernatant was removed and analyzed as described below. […] The concentrations of TMA and d9-TMA in the cell lysate were determined by interpolation from the quadratic (1/×2) regression curve.

[2] = biological target: T1, recombinant D. alaskensis Cut C/D lysate (Oleidesulfovibrio alaskensis, UniProt Q30W70); test: Inhibition of conversion of choline to TMA by recombinant D. alaskensis Cut C/D lysate (Example 5); type: biochemical
T1 construct: made in house
T1 sequence (Q30W70 1-846): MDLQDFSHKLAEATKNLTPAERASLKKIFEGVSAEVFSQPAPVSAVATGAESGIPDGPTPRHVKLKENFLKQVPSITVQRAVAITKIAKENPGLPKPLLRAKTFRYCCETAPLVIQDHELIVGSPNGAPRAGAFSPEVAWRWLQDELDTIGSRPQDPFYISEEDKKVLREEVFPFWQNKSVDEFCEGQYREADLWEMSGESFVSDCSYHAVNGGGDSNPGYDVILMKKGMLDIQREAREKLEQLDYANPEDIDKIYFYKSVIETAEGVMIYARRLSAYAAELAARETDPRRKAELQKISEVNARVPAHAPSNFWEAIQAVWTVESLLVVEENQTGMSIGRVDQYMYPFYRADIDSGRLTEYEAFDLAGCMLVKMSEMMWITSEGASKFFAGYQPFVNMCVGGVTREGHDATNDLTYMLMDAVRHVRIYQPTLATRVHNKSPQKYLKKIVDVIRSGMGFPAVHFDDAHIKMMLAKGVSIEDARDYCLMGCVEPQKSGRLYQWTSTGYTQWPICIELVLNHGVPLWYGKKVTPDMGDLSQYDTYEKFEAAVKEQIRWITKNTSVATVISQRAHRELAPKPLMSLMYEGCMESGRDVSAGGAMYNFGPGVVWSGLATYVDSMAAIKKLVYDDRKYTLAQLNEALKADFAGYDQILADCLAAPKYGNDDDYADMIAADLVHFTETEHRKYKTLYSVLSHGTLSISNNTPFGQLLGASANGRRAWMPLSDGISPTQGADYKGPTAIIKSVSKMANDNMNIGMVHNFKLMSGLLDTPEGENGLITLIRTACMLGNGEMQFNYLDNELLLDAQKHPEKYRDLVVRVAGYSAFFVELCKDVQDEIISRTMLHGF
Description: (§1) Briefly, efficacy was measured as IC50 (nM) by inhibition of conversion of choline to TMA metabolized by recombinant P. mirabilis Cut C/D lysate; recombinant D. alaskensis Cut C/D lysate, or whole cell wild-type P. mirabilis.

[3] = system: whole cell wild-type P. mirabilis; test: Inhibition of conversion of choline to TMA by whole cell wild-type P. mirabilis (Example 5); type: cell-based; details: Proteus mirabilis
Description: as §1

[4] = system: conversion of choline to TMA; test: Rapid preclinical method: d9-choline challenge in mice (Example 6); type: in vivo, C57bl/6 female mice; details: oral gavage with 2 mg d9-Choline, plasma, Time 3 hr
Description: Challenge: C57bl/6 female mice (8 wk of age ˜20 g BW) were maintained in accordance with the NIH guidelines in a 12:12 hr light:dark cycle on normal chow diet were placed in a clean cage without food ˜1 hr prior to gavage. […] Food was returned after a 2 hr fast (1 hr after gavage administration). Blood (30 μL) was collected into a heparinized capillary tube at 2, 3 and 4 hours after gavage. Blood was kept at 4° C., then spun using a centrifuge (5 min in centrifuge designed to capillary tubes) to separate plasma and hematocrit within 4 hours after collection. Plasma samples were stored at −80° C. Concentration of d9 Choline, d9TMA and d9TMAO was measured by LC-MS/MS.
Flora Normalization: Twenty four hours post-gavage mice were placed in a clean cage and fecal material from conventional mice was spread in all the cages.

[5] = biological target: T2, recombinant P. mirabilis Cut C/D lysate (Proteus mirabilis, UniProt B4EYG1); test: Inhibition of conversion of choline to TMA by recombinant P. mirabilis Cut C/D lysate (Example 5); type: biochemical
T2 sequence (B4EYG1 1-1142): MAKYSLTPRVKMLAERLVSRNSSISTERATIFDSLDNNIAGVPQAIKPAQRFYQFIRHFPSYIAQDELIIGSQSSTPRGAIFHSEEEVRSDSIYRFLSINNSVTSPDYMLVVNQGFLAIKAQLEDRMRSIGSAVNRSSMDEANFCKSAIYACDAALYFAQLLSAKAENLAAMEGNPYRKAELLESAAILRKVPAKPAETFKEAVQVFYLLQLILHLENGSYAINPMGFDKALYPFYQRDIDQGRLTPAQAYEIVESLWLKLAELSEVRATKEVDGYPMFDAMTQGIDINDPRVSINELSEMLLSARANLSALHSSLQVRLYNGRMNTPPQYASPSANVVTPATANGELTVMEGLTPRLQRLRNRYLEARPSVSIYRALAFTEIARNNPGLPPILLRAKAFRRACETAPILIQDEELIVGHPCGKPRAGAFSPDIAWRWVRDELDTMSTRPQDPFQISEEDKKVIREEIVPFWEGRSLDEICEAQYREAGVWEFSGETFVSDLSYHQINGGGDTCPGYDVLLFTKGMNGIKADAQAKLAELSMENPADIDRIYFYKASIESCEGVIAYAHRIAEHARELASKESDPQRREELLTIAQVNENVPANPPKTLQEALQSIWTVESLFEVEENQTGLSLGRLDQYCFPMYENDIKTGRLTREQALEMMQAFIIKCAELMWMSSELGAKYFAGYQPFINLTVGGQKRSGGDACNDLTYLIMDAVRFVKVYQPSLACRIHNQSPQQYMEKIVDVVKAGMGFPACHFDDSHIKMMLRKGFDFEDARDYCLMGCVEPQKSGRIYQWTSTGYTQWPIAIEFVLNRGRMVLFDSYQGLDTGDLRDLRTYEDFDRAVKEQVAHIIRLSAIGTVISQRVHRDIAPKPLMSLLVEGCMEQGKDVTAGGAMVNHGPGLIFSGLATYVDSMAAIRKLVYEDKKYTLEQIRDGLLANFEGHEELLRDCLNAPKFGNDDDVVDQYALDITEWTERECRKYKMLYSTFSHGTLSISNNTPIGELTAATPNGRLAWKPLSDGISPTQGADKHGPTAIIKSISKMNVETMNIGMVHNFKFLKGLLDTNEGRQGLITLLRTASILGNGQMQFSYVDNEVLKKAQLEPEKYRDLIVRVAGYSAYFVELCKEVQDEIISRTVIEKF
T2 sequence (B4EYG0 1-316 partner): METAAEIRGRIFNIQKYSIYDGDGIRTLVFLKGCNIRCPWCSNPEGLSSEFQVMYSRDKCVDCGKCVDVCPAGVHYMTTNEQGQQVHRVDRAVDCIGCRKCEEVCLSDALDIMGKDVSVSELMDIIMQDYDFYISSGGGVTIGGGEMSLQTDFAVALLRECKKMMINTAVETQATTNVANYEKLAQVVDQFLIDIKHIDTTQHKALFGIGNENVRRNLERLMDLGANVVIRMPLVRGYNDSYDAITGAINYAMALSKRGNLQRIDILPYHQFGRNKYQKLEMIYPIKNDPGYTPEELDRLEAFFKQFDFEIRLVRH
Description: as §1

**Q.** C[N+](C)(CCl)CCF [ID 1, N-(chloromethyl)-2-fluoro-N,N-dimethylethan-1-aminium chloride] was tested. Which IC50 [1] did it give?
**A.** Its IC50 is 270 nM.

**Q.** What about the IC50 [2] of the same compound?
**A.** Its IC50 is 760 nM.

**Q.** What about the EC50 [3] of the same compound?
**A.** Its EC50 is 8.7 µM.

**Q.** What about the “Calculated EC50 (mg/kg) compared to Vehicle Control” value [4] of the same compound?
**A.** Its value is 3.10 mg/kg.

**Q.** What about the IC50 [5] of the same compound?
**A.** The IC50 was 690 nM.

**Q.** For C[N+](C)(CI)CCF [ID 2, 2-fluoro-N-(iodomethyl)-N,N-dimethylethan-1-aminium chloride], which IC50 [1] is on record?
**A.** Its IC50 is 179 nM.

**Q.** What about the IC50 [2] of the same compound?
**A.** The IC50 was 150 nM.

**Q.** And the EC50 [3]?
**A.** The EC50 was 67 µM.

**Q.** And the “Calculated EC50 (mg/kg) compared to Vehicle Control” value [4]?
**A.** Its value is 15.40 mg/kg.

**Q.** What about the IC50 [5] of the same compound?
**A.** Its IC50 is 240 nM.
